How the values were obtained:
P. myriotylum CMR1 = assay: Fungal plug-CLP droplet assay (growth inhibition and microscopy); format: cell-based, Pythium myriotylum; conditions: for Effect on growth of P. myriotylum mycelium (inhibition zone): all concentrations tested (100 nM, 1, 10, 25, 50 µM), 48 h, 28 °C, n = 5
Text: (§1) The cocoyam rhizosphere isolate, P. myriotylum CMR1 [42], was maintained on Potato Dextrose Agar (PDA) for three days prior to use. The bean root rot pathogen, R. solani AG2-2 CuHav-Rs18 [43], was maintained on the same media for four days before use. The fungal plug-CLP method was used. Sterile microscopic glass slides were covered with a thin, flat layer of water agar (Bacto agar; Difco) and placed in a plastic Petri dish containing a moist sterile filter paper. An agar plug (diameter = 5 mm) taken from an actively growing colony of R. solani or P. myriotylum and placed on top at the center of each glass slide. Stock solutions of purified CLPs were made by dissolution in Dimethyl sulfoxide (DMSO). Serial dilutions of […], 1 µM, 10 µM, 25 µM and 50 µM were prepared using sterile milliQ water. For each dilution, two droplets (15 μL each) of purified CLP (WLIP, pseudodesmin or viscosinamide) were placed on two sides of the glass slide (about 2 cm from the fungal plug). For the control treatment, 0.5% DMSO was used. All plates were incubated for 48 h (P. myriotylum) or 72 h (R. solani) at 28 °C before evaluation under an Olympus BX51 microscope. The images were processed using TopView software. Using a vernier caliper, the inhibition zones were measured as the distance between the CLP droplet and the growing edge of the pathogen. The growth inhibition effect of pure compounds towards both plant pathogens was expressed relative to the mycelial growth in the control. Five replicates of each slide were used. Representative photos are shown.

[1] = system: R. solani AG2-2 CuHav-Rs18; assay: as above; format: cell-based
Text: as §1

P. myriotylum = assay: Pathogen perception experiment (one CLP droplet); format: cell-based, Pythium myriotylum; conditions: one 15 µL CLP droplet 2 cm from the plug, other side blank
Protocol: (§2) For pathogen perception experiments, the afore-described plug-CLP droplet method was employed with slight modifications. Only one 15 µL CLP droplet was introduced 2 cm away from the fungal plug, while the other side of the plug remained blank. Results were assessed by observing whether or not the pathogen only grew towards the CLP droplet or in both directions. Pathogen-CLP interaction was evaluated microscopically and pictures were taken.

R. solani [2] = assay: Pathogen perception experiment (one CLP droplet); format: cell-based; conditions: one 15 µL CLP droplet 2 cm from the plug, other side blank
Protocol: as §2

[3] = system: six Gram-positive bacterial strains; conditions: cited from earlier work
Text: Viscosinamide and pseudodesmin CLPs are neutral, have similar amino acid (AA) composition and only differ from each other by the stereochemistry on the 5th AA [30]. […] A recent study tested the antibacterial activity of 20 novel synthesized pseudodesmin A analogs and reported a mode of action determined by the macrocycle closed by an ester bond and the critical length of the β-OH fatty acid chain capping the N-terminus.

Pythium ultimum = conditions: cited from earlier work
Text: (§3) Antimicrobial activities of Viscosin-group CLPs have been reported, including antibacterial activity. […] When challenged with viscosinamide, cellular changes were detected in the mycelia of both P. ultimum and R. solani.

R. solani [4] = conditions: cited from earlier work
Text: as §3

[5] = purified viscosinamide produced by P. fluorescens DR54

Question: For “White Line-Inducing Principle [WLIP, reference compound]”, which “Effect on growth of P. myriotylum mycelium (inhibition zone)” value (P. myriotylum CMR1) is on record?
Answer: Its value is “visual inhibition zones that could not be easily measured”.

Question: And the “Hyphal morphology of P. myriotylum (microscopy)” value (P. myriotylum CMR1; concentration not specified)?
Answer: The value was “hyphal disintegration, timely evasion and an absence of branching”.

Question: And the “Visual inhibition zone, R. solani AG 2-2” value ([1]; 100 nM, 72 h, 28 °C)?
Answer: Its value is “slight inhibition zone”.

Question: And the “Visual inhibition zone, R. solani AG 2-2” value ([1]; highest concentration (50 µM))?
Answer: The value was “strong inhibition”.

Question: And the “Hyphal morphology of R. solani (microscopy)” value (from here on “Hyphal morphology of R. solani”) ([1]; hyphae growing towards the compound, concentration not specified)?
Answer: Its value is “increased branching as they grew in the direction of the compound”.

Question: And the “Visual inhibition zone, R. solani AG 2-2” value ([1]; intermediate concentrations)?
Answer: Its value is “unclear”.

Question: What about the “Hyphal morphology of R. solani” value ([1]; upon contact with the compound, concentration not specified) of the same substance?
Answer: Its value is “disintegration of hyphae was observed”.

Question: And the “Perception of the CLP by P. myriotylum (direction of growth)” value (P. myriotylum)?
Answer: The value was “grew evenly on sides with or without the CLP”.

Question: And the “Perception of the CLP by R. solani (direction of growth)” value (R. solani [2])?
Answer: Its value is “appeared not to recognize WLIP but grew towards it until hyphal disintegration occurred”.

Question: For pseudodesmin A, which “Hyphal morphology of P. myriotylum (microscopy)” value (P. myriotylum CMR1; 100 nM, 10 µM and 25 µM) is on record?
Answer: The value was “increased/hyper branching, hyphal distortion and CLP evasion”.

Question: And the “Effect on growth of P. myriotylum mycelium (inhibition zone)” value (P. myriotylum CMR1)?
Answer: Its value is “significantly inhibited pathogen growth”.

Question: And the “Visual inhibition zone, R. solani AG 2-2” value ([1]; 100 nM, 72 h, 28 °C)?
Answer: Its value is “visual inhibition zone”.

Question: What about the “Hyphal morphology of R. solani” value ([1]; 0.1, 1, 10, 25 and 50 µM) of the same substance?
Answer: Its value is “CLP evasion by the pathogen, hyphae distortion and the disintegration of hyphae with debris observed on the slide”.

Question: And the “Visual inhibition zone, R. solani AG 2-2” value ([1]; higher concentrations of 1, 10, 25 and 50 µM, compared with 100 nM)?
Answer: The value was “became enhanced”.

Question: And the “Antibacterial activity, pseudodesmin compared with viscosinamide” value [3]?
Answer: The value was “equal activity”.

Question: Which results are given for viscosinamide A?
Answer: Hyphal morphology of P. myriotylum (microscopy) (P. myriotylum CMR1; 50 µM): enhanced elongation of primary mycelium and the formation of convergent structures by mycelia; Effect on growth of P. myriotylum mycelium (inhibition zone) (P. myriotylum CMR1): enhanced the growth of P. myriotylum mycelium without any visible inhibition zone; Hyphal morphology of R. solani (microscopy) ([1]; 50 µM): mycelia distortion and disintegration was observed in combination with a coordinated formation of melanized structures by multiple primary hyphae; Visual inhibition zone, R. solani AG 2-2 ([1]; all concentrations tested (100 nM-50 µM)): no visual inhibition zone was observed in treatments with viscosinamide except at 10 µM; Hyphal morphology of R. solani (microscopy) ([1]; all concentrations tested except 50 µM): CLP evasion, hyphal distortion and the rupturing of contents; Antibacterial activity, pseudodesmin compared with viscosinamide [3]: equal activity; Cellular changes in mycelia of P. ultimum (Pythium ultimum; fluorescent stains): extensive branching, increased hyphal septation and swelling and decreased the hydrophobicity of cell walls and membranes; Effect on growth of Pythium ultimum (Pythium ultimum; [5]): reduced fungal growth and the aerial mycelium development; Cellular changes in mycelia of R. solani (R. solani [4]; fluorescent stains): extensive branching, increased hyphal septation and swelling and decreased the hydrophobicity of cell walls and membranes; Effect on growth of R. solani (R. solani [4]; [5]): reduced fungal growth and the aerial mycelium development

From article PMC7409209, “Biosynthesis and Antimicrobial Activity of Pseudodesmin and Viscosinamide Cyclic Lipopeptides Produced by Pseudomonads Associated with the Cocoyam Rhizosphere” (Microorganisms, 2020)
